Experimental data reported in patent publication US20250236589A1, “THERAPEUTIC PHENETHYLAMINE COMPOSITIONS AND METHODS OF USE” (Cybin IRL Limited, priority 2022, published 2025).
Where two headings read alike, the source gives them in different places.

Tests used:
Angiotensin AT1 (h) = Angiotensin AT1 (h) (Homo sapiens (Human), UniProt P30556); experiment: Off-target screen, radioligand displacement at 10 μM; conditions: read-out: binding at 10 μM
Angiotensin AT2 (h) = Angiotensin AT2 (h) (Homo sapiens (Human), UniProt P50052); experiment: as above; conditions: read-out: binding at 10 μM
Dopamine D3 (h) = Dopamine D3 (h) (Homo sapiens (Human), UniProt P35462); experiment: as above; assay type: binding
[1] = tested on: Somatostatin SST (non-selective) (m); experiment: as above; assay type: binding, mouse
5-HT transporter (h) = 5-HT transporter (h) (Homo sapiens (Human), UniProt P31645); experiment: as above; assay type: binding
[2] = tested on: Calcium SKCa channel (rat cortex); experiment: as above; assay type: binding
Muscarinic M2 (h) = Muscarinic M2 (h) (Homo sapiens (Human), UniProt P08172); experiment: as above; conditions: read-out: binding at 10 μM
α1 (non-selective) (r) = experiment: as above; assay type: binding, rat
Adrenergic β1 (h) = Adrenergic β1 (h) (Homo sapiens (Human), UniProt P08588); experiment: as above; conditions: read-out: binding at 10 μM
Adrenergic β1 (h), sequence (P08588 whole entry, looked up): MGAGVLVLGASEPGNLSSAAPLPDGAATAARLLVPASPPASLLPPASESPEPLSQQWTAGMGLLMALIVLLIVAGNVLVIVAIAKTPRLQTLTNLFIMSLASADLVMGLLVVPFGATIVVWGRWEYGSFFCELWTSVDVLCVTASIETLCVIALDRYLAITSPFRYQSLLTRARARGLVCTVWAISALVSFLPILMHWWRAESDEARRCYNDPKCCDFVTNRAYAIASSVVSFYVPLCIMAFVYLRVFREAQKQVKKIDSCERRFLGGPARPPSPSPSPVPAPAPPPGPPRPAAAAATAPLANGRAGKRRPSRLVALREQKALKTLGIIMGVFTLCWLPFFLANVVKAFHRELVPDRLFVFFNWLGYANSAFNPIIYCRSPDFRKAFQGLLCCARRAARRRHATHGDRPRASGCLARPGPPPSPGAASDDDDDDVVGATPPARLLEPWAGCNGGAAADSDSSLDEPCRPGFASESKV

Cannabinoid CB1 (h) = Cannabinoid CB1 (h) (Homo sapiens (Human), UniProt P21554); experiment: as above; assay type: binding
δ-opioid (h) = δ-opioid (h) (Homo sapiens (Human), UniProt P41143); experiment: as above; conditions: read-out: binding at 10 μM
Melatonin MT1 (h) = Melatonin MT1 (h) (Homo sapiens (Human), UniProt P48039); experiment: as above; conditions: read-out: binding at 10 μM
Melatonin MT1 (h), sequence (P48039 whole entry, looked up): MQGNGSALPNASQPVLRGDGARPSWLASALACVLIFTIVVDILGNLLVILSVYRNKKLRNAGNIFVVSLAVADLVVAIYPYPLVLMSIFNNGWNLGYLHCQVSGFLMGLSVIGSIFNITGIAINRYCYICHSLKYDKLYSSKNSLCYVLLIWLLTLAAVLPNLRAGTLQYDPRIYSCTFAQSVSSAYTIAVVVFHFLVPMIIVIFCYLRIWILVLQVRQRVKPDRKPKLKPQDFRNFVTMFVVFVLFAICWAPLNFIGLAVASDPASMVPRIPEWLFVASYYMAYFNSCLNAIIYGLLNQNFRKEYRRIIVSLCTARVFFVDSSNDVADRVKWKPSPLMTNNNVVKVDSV

[3] = molecular target: norepinephrine transporter (h) (Homo sapiens (Human), UniProt P23975); experiment: as above; conditions: read-out: binding at 10 μM
Tachykinin NK2 (h) = Tachykinin NK2 (h) (Homo sapiens (Human), UniProt P21452); experiment: as above; conditions: read-out: binding at 10 μM
Tachykinin NK2 (h), sequence (P21452 whole entry, looked up): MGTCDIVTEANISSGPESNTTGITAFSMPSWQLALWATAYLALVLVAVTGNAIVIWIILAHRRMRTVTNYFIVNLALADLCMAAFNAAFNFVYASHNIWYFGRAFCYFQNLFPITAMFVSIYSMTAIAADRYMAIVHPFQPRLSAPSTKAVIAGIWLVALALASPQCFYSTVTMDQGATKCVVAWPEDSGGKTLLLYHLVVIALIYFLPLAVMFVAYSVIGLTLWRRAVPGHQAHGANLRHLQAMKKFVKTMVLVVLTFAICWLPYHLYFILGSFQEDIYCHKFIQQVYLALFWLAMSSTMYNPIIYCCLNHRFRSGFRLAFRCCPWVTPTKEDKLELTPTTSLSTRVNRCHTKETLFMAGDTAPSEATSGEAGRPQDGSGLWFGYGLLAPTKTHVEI

Galanin GAL2 (h) = Galanin GAL2 (h) (Homo sapiens (Human), UniProt O43603); experiment: as above; conditions: read-out: binding at 10 μM
Galanin GAL2 (h), sequence (O43603 whole entry, looked up): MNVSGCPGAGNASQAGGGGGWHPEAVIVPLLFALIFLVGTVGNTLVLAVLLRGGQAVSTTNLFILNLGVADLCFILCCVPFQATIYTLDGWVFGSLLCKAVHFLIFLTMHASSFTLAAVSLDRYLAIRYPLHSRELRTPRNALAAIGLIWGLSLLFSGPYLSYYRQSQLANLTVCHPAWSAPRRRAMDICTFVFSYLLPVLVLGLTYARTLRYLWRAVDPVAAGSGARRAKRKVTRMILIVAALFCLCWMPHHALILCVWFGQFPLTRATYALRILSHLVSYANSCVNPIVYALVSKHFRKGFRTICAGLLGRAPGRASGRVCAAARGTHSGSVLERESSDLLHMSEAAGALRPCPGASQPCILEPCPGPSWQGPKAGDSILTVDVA

Prostaglandin EP4 (h) = Prostaglandin EP4 (h) (Homo sapiens (Human), UniProt P35408); experiment: as above; conditions: read-out: binding at 10 μM
Muscarinic M4 (h) = Muscarinic M4 (h) (Homo sapiens (Human), UniProt P08173); experiment: as above; assay type: binding; conditions: antagonist radioligand
Muscarinic M3 (h) = Muscarinic M3 (h) (Homo sapiens (Human), UniProt P20309); experiment: as above; assay type: binding; conditions: antagonist radioligand
Muscarinic M3 (h), sequence (P20309 whole entry, looked up): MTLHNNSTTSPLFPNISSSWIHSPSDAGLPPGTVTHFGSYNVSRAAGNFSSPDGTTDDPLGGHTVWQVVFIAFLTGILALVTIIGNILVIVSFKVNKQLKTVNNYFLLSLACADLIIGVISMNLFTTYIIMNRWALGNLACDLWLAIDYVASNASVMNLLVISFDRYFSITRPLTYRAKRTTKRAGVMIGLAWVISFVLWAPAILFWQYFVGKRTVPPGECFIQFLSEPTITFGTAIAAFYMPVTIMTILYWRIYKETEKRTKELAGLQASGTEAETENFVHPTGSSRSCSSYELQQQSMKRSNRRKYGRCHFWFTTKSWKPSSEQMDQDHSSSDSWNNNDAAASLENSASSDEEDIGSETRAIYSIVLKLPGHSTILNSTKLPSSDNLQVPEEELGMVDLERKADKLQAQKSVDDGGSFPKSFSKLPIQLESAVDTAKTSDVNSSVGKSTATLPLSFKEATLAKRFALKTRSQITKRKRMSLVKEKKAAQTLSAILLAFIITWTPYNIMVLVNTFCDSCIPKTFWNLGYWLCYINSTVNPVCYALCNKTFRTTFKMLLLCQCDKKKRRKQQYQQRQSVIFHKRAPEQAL

5-HT2C receptor = 5-HT2C receptor (Homo sapiens (Human), UniProt P28335); experiment: 5-HT2C functional assay, IP1 (IPOne); assay type: cell-based; conditions: for Emax: IP1 assay, relative to 5-HT
5-HT2C receptor, sequence (P28335 whole entry, looked up): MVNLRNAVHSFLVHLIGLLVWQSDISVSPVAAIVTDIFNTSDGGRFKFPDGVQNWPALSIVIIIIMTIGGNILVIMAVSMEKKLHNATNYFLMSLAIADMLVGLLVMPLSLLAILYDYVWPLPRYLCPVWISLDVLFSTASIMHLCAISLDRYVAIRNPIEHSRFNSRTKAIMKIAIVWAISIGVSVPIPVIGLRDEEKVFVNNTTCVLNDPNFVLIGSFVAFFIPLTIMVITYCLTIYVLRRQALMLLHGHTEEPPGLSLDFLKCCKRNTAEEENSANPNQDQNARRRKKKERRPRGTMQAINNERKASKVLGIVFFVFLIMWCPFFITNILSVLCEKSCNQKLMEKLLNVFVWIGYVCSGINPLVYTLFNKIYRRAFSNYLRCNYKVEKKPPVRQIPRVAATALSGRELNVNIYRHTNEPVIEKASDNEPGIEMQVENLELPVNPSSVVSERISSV
Method: 5-HT2A,2B,2C receptor-mediated Gq activation—canonical signaling pathways—[phosphoinositide hydrolysis leading to the production of inositol phosphate 1 (IP1, IPOne, Cisbio assay) or direct G-protein activation using TRUPATH technology]were measured as previously described (Porter, R. H. P., Benwell, K. R., Lamb, H., Malcolm, C. S., Allen, N. F., Revell, D. F., Adams, D. R. and Sheardown, M. J., 1999, Functional characterization of agonists at recombinant human 5-HT2a, 5HT2b and 5-HT2c receptors in CHO-K1 cells, Brit J Pharmacol 128, 13; Olsen, R. H. J., DiBerto, J. F., English, J. G. et al. TRUPATH, an open-source biosensor platform for interrogating the GPCR transducerome. […] Briefly, for the IPOne assay, for 5-HT2ARs, CHO-K1 or HEK-293 cells were incubated with test articles and 5-HT (positive control) in stimulation buffer containing LiCl. After incubation, cells were lysed and fluorescence acceptor and donor were added. FRET was measured after 60 min at room temperature using a microplate reader (Envision, Perkin Elmer). TRUPATH assays followed a similar workflow, except that different reagents were used, and LiCl was not included in the samples; the protocol was based on the report by Olsen, R. H. J. et al., cited above.

[4] = molecular target: PAC1 (Pituitary adenylate cyclase-activating polypeptide, PACAP) (h) (Homo sapiens (Human), UniProt P41586); experiment: Off-target screen, radioligand displacement at 10 μM; conditions: read-out: binding at 10 μM
PAC1 (Pituitary adenylate cyclase-activating polypeptide, PACAP) (h), sequence (P41586 whole entry, looked up): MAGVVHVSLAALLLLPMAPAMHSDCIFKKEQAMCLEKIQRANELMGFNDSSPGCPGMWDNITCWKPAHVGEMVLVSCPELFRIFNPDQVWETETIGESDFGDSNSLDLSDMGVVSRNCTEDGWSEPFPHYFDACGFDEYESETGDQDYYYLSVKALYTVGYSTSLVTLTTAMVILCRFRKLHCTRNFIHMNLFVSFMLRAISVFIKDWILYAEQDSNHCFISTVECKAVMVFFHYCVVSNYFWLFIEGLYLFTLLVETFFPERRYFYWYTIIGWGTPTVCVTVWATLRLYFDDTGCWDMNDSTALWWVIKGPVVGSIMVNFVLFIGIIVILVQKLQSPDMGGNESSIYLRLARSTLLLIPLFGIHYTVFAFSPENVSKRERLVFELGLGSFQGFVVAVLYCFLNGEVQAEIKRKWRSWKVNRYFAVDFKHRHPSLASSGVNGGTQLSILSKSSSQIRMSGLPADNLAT

[5] = molecular target: CXCR2 (Interleukin-8B) (h) (Homo sapiens (Human), UniProt P25025); experiment: as above; conditions: read-out: binding at 10 μM
CXCR2 (Interleukin-8B) (h), sequence (P25025 whole entry, looked up): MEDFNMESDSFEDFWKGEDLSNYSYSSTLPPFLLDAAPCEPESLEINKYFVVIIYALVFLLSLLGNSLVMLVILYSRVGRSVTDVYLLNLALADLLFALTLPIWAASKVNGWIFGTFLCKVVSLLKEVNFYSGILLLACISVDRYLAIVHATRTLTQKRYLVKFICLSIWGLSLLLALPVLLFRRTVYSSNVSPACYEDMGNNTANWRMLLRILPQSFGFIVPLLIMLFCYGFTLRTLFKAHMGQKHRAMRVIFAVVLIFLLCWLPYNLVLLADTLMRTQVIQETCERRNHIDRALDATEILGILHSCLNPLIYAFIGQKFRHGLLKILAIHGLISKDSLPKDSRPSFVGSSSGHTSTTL

[6] = molecular target: Calcitonin Gene-Related Peptide CGRP1 (h) (Homo sapiens (Human), UniProt Q16602); experiment: as above; conditions: read-out: binding at 10 μM
5-HT5a (h) = 5-HT5a (h) (Homo sapiens (Human), UniProt P47898); experiment: as above; conditions: agonist, read-out: binding at 10 μM
Glucocorticoid GR (h) = Glucocorticoid GR (h) (Homo sapiens (Human), UniProt P04150); experiment: as above; conditions: read-out: binding at 10 μM
Endothelin ETB (h) = Endothelin ETB (h) (Homo sapiens (Human), UniProt P24530); experiment: as above; conditions: read-out: binding at 10 μM
B2 (h) = B2 (h) (Homo sapiens (Human), UniProt P30411); experiment: as above; conditions: read-out: binding at 10 μM
B2 (h), sequence (P30411 whole entry, looked up): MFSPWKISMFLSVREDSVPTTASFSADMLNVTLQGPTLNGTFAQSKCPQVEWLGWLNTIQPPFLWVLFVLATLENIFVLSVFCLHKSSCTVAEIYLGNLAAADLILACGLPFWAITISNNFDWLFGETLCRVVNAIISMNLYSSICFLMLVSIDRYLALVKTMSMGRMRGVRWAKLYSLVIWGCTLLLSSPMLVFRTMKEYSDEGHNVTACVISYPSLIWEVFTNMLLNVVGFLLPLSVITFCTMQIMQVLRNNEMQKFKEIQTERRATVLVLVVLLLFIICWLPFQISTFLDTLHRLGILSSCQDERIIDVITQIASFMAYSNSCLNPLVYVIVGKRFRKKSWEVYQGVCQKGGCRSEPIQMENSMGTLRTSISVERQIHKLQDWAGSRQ

Melanocortin MC4 (h) = Melanocortin MC4 (h) (Homo sapiens (Human), UniProt P32245); experiment: as above; conditions: read-out: binding at 10 μM
Melanocortin MC4 (h), sequence (P32245 whole entry, looked up): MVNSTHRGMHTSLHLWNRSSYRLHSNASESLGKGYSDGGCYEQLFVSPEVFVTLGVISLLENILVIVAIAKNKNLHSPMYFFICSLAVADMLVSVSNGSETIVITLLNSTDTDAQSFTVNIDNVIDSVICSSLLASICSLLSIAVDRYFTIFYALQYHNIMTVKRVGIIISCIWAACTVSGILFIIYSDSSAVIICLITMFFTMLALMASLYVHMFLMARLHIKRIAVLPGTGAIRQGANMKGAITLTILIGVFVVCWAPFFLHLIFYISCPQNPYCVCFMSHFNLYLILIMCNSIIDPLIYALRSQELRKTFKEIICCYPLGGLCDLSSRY

Muscarinic M1 (h) = Muscarinic M1 (h) (Homo sapiens (Human), UniProt P11229); experiment: as above; assay type: binding; conditions: antagonist radioligand
[7] = tested on: GABA (non-selective) (rat cortex); experiment: as above; assay type: binding
PCP (rat cortex) = experiment: as above; assay type: binding
D2S (h) = D2S (h) (Homo sapiens (Human), UniProt P14416); experiment: as above; conditions: read-out: binding at 10 μM
D2S (h), sequence (P14416 whole entry, looked up): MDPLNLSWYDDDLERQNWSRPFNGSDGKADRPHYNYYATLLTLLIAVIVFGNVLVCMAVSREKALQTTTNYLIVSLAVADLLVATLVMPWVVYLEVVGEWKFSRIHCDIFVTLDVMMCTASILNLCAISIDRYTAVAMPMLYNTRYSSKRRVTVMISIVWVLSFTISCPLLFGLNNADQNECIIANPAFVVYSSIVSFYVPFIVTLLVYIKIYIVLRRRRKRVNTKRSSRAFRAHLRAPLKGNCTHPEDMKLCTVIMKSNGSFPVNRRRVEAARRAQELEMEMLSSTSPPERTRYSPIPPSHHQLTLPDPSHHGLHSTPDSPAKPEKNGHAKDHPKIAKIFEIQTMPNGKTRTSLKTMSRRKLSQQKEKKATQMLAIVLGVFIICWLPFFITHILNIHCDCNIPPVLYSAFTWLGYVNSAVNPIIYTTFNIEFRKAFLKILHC

[8] = antagonist radioligand, read-out: inhibition at 10 μM
[9] = read-out: inhibition of radioligand bound at 10 μM

SMILES | inhibition at 10 µM (Angiotensin AT1 (h)) | inhibition at 10 µM (Angiotensin AT2 (h)) | binding at 10 μM [1] | binding at 10 μM [2] | inhibition at 10 µM (Muscarinic M2 (h)) | binding at 10 μM (α1 (non-selective) (r)) | inhibition at 10 µM (Adrenergic β1 (h)) | inhibition at 10 µM (Cannabinoid CB1 (h); read-out: binding at 10 μM) | inhibition at 10 µM (Cannabinoid CB1 (h); [9]) | inhibition at 10 µM (δ-opioid (h)) | inhibition at 10 µM (Melatonin MT1 (h)) | inhibition at 10 µM [3] | inhibition at 10 µM (Tachykinin NK2 (h)) | inhibition at 10 µM (Galanin GAL2 (h)) | inhibition at 10 µM (Prostaglandin EP4 (h)) | inhibition at 10 µM (Muscarinic M4 (h)) | inhibition at 10 µM (Muscarinic M3 (h)) | EC50 (5-HT2C receptor) | Emax (5-HT2C receptor) | inhibition at 10 µM [4] | further results
COc1cc(CC(C)N)c(OC)cc1I (racemic) [DOI, (±)-2,5-dimethoxy-4-iodoamphetamine, reference compound] | < 50% | < 50% | NB (inhibited less than 50% of radioligand bound to them, and therefore it can be concluded they do not bind (“no binding,” NB)) | NB (inhibited less than 50% of radioligand bound to them, and therefore it can be concluded they do not bind (“no binding,” NB)) | < 50% | NB (inhibited less than 50% of radioligand bound to them, and therefore it can be concluded they do not bind (“no binding,” NB)) | < 50% | < 50% | < 50% | < 50% | < 50% | < 50% | < 50% | < 50% | < 50% | 75.7% | 60.4% | 8 nM | ~108% | < 50% | inhibition at 10 µM (Dopamine D3 (h); read-out: binding at 10 μM): < 50%; inhibition at 10 µM (5-HT transporter (h); [8]): 76.2%; inhibition at 10 µM [5]: < 50%; inhibition at 10 µM [6]: < 50%; inhibition at 10 µM (5-HT5a (h)): < 50%; inhibition at 10 µM (Glucocorticoid GR (h)): < 50%; inhibition at 10 µM (Endothelin ETB (h)): < 50%; inhibition at 10 µM (B2 (h)): < 50%; inhibition at 10 µM (Melanocortin MC4 (h)): < 50%; inhibition at 10 µM (Muscarinic M1 (h)): 71.8%; binding at 10 μM [7]: NB (inhibited less than 50% of radioligand bound to them, and therefore it can be concluded they do not bind (“no binding,” NB)); binding at 10 μM (PCP (rat cortex)): NB (inhibited less than 50% of radioligand bound to them, and therefore it can be concluded they do not bind (“no binding,” NB)); inhibition at 10 µM (D2S (h)): < 50%
COc1cc(SC(F)(F)F)c(OC)cc1CCN [Compound I-1, 2-(2,5-dimethoxy-4-((trifluoromethyl)thio)phenyl)ethan-1-amine] | < 50% | < 50% | NB (inhibited less than 50% of radioligand bound to them, and therefore it can be concluded they do not bind (“no binding,” NB)) | NB (inhibited less than 50% of radioligand bound to them, and therefore it can be concluded they do not bind (“no binding,” NB)) | < 50% | NB (inhibited less than 50% of radioligand bound to them, and therefore it can be concluded they do not bind (“no binding,” NB)) | < 50% | < 50% | < 50% | < 50% | < 50% | < 50% | < 50% | < 50% | < 50% | > 80% | 79% | 7.3 nM | ~99% | < 50% | inhibition at 10 µM (Dopamine D3 (h); [8]): 70.4%; inhibition at 10 µM (5-HT transporter (h); read-out: binding at 10 μM): < 50%; activation selectivity for 5-HT2C over 5-HT2B (5-HT2C receptor; EC50, IP1): ~12 fold; inhibition at 10 µM [5]: < 50%; inhibition at 10 µM [6]: < 50%; inhibition at 10 µM (5-HT5a (h)): < 50%; inhibition at 10 µM (Glucocorticoid GR (h)): < 50%; inhibition at 10 µM (Endothelin ETB (h)): < 50%; inhibition at 10 µM (B2 (h)): < 50%; inhibition at 10 µM (Melanocortin MC4 (h)): < 50%; inhibition at 10 µM (Muscarinic M1 (h)): > 80%; binding at 10 μM [7]: NB (inhibited less than 50% of radioligand bound to them, and therefore it can be concluded they do not bind (“no binding,” NB)); binding at 10 μM (PCP (rat cortex)): NB (inhibited less than 50% of radioligand bound to them, and therefore it can be concluded they do not bind (“no binding,” NB)); inhibition at 10 µM (D2S (h)): < 50%
